# Data taken from patent publication US7470706B2, “Cycloalkyl-substituted 7-amino-4-quinolone-3-carboxylic acid derivatives, process for their preparation and their use as medicaments” (Sanofi-Aventis Deutschland GmbH, priority 2004, dated 2008).
# Molecular target: T1, human glycogen phosphorylase a (Homo sapiens, UniProt P06737)
# T1 sequence (P06737 1-847): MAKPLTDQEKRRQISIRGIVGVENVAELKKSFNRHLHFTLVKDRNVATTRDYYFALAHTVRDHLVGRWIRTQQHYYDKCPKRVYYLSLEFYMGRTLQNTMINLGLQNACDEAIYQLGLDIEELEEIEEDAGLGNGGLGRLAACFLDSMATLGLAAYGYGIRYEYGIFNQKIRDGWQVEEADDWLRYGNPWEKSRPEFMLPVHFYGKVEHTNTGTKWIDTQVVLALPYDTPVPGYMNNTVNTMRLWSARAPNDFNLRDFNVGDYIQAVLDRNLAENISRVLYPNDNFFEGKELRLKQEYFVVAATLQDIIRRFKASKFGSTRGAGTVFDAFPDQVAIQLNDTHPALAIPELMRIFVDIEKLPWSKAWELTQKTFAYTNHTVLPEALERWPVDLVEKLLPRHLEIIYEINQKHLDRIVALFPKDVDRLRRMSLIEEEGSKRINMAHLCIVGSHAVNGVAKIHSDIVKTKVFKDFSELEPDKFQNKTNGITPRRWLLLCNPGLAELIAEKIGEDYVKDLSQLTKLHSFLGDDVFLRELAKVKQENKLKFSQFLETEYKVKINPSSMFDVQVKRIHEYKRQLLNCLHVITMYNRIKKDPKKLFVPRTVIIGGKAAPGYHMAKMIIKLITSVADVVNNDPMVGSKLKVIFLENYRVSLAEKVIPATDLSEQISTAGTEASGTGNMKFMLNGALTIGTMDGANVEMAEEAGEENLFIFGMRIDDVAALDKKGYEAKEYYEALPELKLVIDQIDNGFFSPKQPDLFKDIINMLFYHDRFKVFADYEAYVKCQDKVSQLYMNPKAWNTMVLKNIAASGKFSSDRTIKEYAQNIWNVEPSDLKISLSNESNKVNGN
# Experiment: Glycogen phosphorylase a activity assay
# Format: biochemical
# Details: 10 μM test substance; reverse direction (glycogen synthesis from glucose 1-phosphate), inorganic phosphate liberation
# Method: Glycogen Phosphorylase a Activity Assay
# The effect of compounds on the activity of the active form of glycogen phosphorylase (GPa) was measured in the reverse direction by following the synthesis of glycogen from glucose 1-phosphate by determining the liberation of inorganic phosphate. All the reactions were carried out as duplicate determinations in microtiter plates with 96 wells (Half Area Plates, Costar No 3696), measuring the change in absorption owing to the formation of the reaction product at the wavelength specified hereinafter in a Multiskan Ascent Elisa Reader (Lab Systems, Finland).
# In order to measure the GPa enzymic activity in the reverse direction, the general method of Engers et al. (Engers H D, Shechosky S, Madsen N B, Can J Biochem 1970 July; 48(7):746-754) was used to measure the conversion of glucose 1-phosphate into glycogen and inorganic phosphate, with the following modifications: human glycogen phosphorylase a (for example with 0.76 mg of protein/ml (Aventis Pharma Deutschland GmbH), dissolved in buffer solution E (25 mM β-glycerophosphate, pH 7.0, 1 mM EDTA and 1 mM dithiothreitol) was diluted with buffer T (50 mM Hepes, pH 7.0, 100 mM KCl, 2.5 mM EDTA, 2.5 mM MgCl2.6H2O) and addition of 5 mg/ml glycogen to a concentration of 10 μg of protein/ml. […] After incubation at 45° C. for 60 minutes, the absorption at 820 nm was measured. […]
row,SMILES,inhibition at 10 µM [%]
1,C#CC1(Nc2cc3c(=O)c(C(=O)OCC)cn(CC)c3nc2C)CCCCC1 [Example 2],42
2,"C#CC1(Nc2cc3c(=O)c(C(=O)O)cn(CC)c3nc2C)CCCCC1 [Example 3, 1-Ethyl-6-(1-ethynylcyclohexylamino)-7-methyl-4-oxo-1,4-dihydro[1,8]naphthyridine-3-carboxylic acid]",35
